pIC50, pKi: −log10 of the molar value.
Experiments:
[1] = target: Mitogen-activated protein kinase 3 (Homo sapiens, UniProt P27361); experiment: DRUGMATRIX: Protein Serine/Threonine Kinase, ERK1 enzyme inhibition (substrate: Myelin Basic Protein); set-up: species or system Escherichia coli; details: Not Active = under 50% inhibition at 10 µM
[2] = target: T1, C-X-C chemokine receptor type 1 (Homo sapiens, UniProt P25024); also: in other assays of this panel Not Active means under 50% inhibition at 10 µM
T1 sequence (P25024 whole entry): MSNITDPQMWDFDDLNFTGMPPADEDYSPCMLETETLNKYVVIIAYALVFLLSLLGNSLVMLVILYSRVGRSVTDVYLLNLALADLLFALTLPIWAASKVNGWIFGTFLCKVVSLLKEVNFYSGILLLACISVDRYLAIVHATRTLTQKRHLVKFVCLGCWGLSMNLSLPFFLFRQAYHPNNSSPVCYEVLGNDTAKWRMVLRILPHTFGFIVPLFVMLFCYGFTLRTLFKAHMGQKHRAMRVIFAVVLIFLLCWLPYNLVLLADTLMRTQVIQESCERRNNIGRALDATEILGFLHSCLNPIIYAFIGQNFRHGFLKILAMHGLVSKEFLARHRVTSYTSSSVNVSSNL

[3] = target: T2, Substance-K receptor (Homo sapiens, UniProt P21452); type: cell membranes, CHO, Membrane; details: for pIC50: read-out: IC50; for pKi: read-out: Ki; as to all read-outs here: in other assays of this panel Not Active means under 50% inhibition at 10 µM
T2 sequence (P21452 whole entry): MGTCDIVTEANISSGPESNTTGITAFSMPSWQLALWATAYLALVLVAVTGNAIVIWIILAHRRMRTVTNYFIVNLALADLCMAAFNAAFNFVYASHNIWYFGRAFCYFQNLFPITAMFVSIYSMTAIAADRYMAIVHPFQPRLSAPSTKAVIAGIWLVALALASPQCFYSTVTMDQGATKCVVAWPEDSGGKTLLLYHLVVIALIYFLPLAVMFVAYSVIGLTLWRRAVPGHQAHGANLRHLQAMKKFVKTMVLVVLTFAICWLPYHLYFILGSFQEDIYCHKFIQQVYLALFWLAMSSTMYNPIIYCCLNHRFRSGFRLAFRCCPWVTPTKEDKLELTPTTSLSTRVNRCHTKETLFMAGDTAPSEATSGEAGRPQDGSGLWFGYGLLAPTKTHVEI

[4] = target: T3, Alpha-1D adrenergic receptor (Homo sapiens, UniProt P25100); type: cell membranes, HEK293, Membrane; details: for pIC50: read-out: IC50; for pKi: read-out: Ki; as to all read-outs here: in other assays of this panel Not Active means under 50% inhibition at 10 µM
T3 sequence (P25100 whole entry): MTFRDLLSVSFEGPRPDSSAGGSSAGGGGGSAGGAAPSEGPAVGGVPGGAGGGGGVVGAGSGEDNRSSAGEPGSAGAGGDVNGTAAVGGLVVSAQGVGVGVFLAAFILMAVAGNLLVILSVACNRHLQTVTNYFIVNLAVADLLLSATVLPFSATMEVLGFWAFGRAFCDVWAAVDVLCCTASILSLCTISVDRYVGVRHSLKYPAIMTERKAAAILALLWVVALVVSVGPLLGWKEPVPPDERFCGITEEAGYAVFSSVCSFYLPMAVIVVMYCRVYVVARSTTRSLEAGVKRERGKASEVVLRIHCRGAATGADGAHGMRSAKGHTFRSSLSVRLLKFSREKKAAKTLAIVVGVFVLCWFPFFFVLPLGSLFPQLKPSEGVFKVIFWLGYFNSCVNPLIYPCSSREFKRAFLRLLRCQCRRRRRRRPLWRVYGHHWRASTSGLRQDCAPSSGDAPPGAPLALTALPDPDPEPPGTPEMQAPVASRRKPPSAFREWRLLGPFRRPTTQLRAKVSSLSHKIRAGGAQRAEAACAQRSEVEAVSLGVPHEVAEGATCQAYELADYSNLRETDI

[5] = target: Tyrosine-protein kinase Lck (Homo sapiens, UniProt P06239); experiment: DRUGMATRIX: Protein Tyrosine Kinase, LCK enzyme inhibition (substrate: Poly(Glu:Tyr)); type: cell-based, Insect cells; details: Not Active = under 50% inhibition at 10 µM; for pIC50: read-out: IC50
[6] = target: T4, Leukotriene C4 synthase (Cavia porcellus, UniProt A6XA80); type: tissue-based, Lung;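 also: enzyme inhibition assay of leukotriene C4 synthase, using LTA4 as the substrate; in other assays of this panel Not Active means under 50% inhibition at 10 µM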
T4 sequence (A6XA80 whole entry): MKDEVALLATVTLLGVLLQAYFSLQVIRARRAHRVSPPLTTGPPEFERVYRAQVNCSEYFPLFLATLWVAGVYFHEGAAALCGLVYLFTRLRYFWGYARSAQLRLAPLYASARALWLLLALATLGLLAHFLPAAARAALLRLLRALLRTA

[7] = target: T5, C-C chemokine receptor type 4 (Homo sapiens, UniProt P51679); type: cell membranes, Membrane; details: chem-1; also: in other assays of this panel Not Active means under 50% inhibition at 10 µM
T5 sequence (P51679 whole entry): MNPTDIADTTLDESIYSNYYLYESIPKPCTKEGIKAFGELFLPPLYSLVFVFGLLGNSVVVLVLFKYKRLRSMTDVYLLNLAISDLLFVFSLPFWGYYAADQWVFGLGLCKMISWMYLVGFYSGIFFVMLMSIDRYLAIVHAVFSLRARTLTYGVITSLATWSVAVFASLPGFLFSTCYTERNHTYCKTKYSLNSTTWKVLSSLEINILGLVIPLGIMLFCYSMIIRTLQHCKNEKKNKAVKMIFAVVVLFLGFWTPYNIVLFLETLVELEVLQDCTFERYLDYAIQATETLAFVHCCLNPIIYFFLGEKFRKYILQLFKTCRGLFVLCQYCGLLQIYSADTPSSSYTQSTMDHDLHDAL

Tyrosine-protein kinase Lck, sequence (P06239 whole entry): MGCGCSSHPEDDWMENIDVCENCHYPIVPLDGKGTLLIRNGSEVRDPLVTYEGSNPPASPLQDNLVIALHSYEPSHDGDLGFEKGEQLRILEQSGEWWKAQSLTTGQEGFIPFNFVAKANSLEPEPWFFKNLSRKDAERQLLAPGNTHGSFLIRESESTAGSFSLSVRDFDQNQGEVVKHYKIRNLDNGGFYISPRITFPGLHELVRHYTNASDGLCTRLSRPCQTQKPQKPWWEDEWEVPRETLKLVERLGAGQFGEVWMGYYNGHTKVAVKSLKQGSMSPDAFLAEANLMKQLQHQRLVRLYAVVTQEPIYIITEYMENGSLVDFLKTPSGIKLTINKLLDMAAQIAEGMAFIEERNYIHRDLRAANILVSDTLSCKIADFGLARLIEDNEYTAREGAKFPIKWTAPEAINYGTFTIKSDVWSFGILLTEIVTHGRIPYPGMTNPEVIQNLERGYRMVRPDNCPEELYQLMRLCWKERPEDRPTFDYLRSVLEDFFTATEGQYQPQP
Mitogen-activated protein kinase 3, sequence (P27361 whole entry): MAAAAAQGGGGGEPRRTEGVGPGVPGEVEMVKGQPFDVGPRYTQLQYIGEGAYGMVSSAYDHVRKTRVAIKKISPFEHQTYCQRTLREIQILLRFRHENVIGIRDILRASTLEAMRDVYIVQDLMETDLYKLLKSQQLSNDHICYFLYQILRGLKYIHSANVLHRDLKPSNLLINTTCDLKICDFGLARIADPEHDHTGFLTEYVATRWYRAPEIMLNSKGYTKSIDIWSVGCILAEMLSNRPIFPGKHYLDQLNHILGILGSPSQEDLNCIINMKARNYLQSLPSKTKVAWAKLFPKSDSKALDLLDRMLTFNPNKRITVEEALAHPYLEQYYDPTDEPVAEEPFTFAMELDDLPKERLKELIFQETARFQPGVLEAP

| Compound | IC50 [1] | IC50 [2] | IC50 ([3]; cho) | IC50 ([4]; hek293) | IC50 ([5]; insect cells) | IC50 [6] | IC50 [7] | Ki [7] | pIC50 [4] | pKi [4] | pIC50 [3] | pKi [3] | Ki [1] | Ki [2] | Ki ([3]; cho) | Ki ([4]; hek293) | pIC50 ([5]; insect cells) | Ki [6] | pIC50 [5] |
| --- | --- | --- | --- | --- | --- | --- | --- | --- | --- | --- | --- | --- | --- | --- | --- | --- | --- | --- | --- |
| CC(=N)S [THIOACETAMIDE] | Not Active | Not Active | Not Active | Not Active | Not Active | Not Active | Not Active | – | – | – | – | – | – | – | – | – | – | – | – |
| O=C1C[C@@H]2OCC=C3CN4CC[C@]56c7ccccc7N1[C@H]5[C@H]2[C@H]3C[C@H]46 [STRYCHNINE] | Not Active | Not Active | Not Active | Not Active | Not Active | Not Active | Not Active | – | – | – | – | – | – | – | – | – | – | – | – |
| Nc1ccc(S(=O)(=O)NC(=O)c2ccccc2)cc1 [SULFABENZAMIDE] | Not Active | Not Active | Not Active | Not Active | Not Active | Not Active | Not Active | – | – | – | – | – | – | – | – | – | – | – | – |
| CC(=O)OCC(COC(C)=O)OC(C)=O [TRIACETIN] | Not Active | Not Active | Not Active | Not Active | Not Active | Not Active | – | Not Active | – | – | – | – | – | – | – | – | – | – | – |
| CCCCC(=O)N(Cc1ccc(-c2ccccc2-c2nnn[nH]2)cc1)[C@H](C(=O)O)C(C)C | Not Active | Not Active | Not Active | Not Active | Not Active | Not Active | Not Active | – | – | – | – | – | – | – | – | – | – | – | – |
| OCCOCCN1CCN(C2=Nc3ccccc3Sc3ccccc32)CC1 [QUETIAPINE] | Not Active | Not Active | Not Active | – | Not Active | Not Active | Not Active | – | 7.02 | 7.32 | – | – | – | – | – | – | – | – | – |
| CC1CCC(NC(=O)N(CCCl)N=O)CC1 (stereo not drawn) [SEMUSTINE] | Not Active | Not Active | Not Active | Not Active | Not Active | Not Active | Not Active | – | – | – | – | – | – | – | – | – | – | – | – |
| Oc1ccc2c3c1O[C@H]1[C@@H](O)CC[C@@]4(O)[C@@H](C2)N(CC2CCC2)CC[C@]314 [NALBUPHINE] | Not Active | Not Active | Not Active | Not Active | Not Active | Not Active | Not Active | – | – | – | – | – | – | – | – | – | – | – | – |
| Clc1ccc(COC(Cn2ccnc2)c2ccc(Cl)cc2Cl)c(Cl)c1 (stereo not drawn) [MICONAZOLE] | Not Active | Not Active | – | – | Not Active | Not Active | Not Active | – | 5.52 | 5.82 | 5.32 | 5.79 | – | – | – | – | – | – | – |
| O=C(O)CCCCC1CCSS1 (stereo not drawn) [LIPOIC ACID, ALPHA] | Not Active | Not Active | Not Active | Not Active | Not Active | Not Active | Not Active | – | – | – | – | – | – | – | – | – | – | – | – |
| CCCCCCCCNC(C)C(O)c1ccc(SC(C)C)cc1 (stereo not drawn) [SULOCTIDIL] | Not Active | Not Active | – | Not Active | Not Active | Not Active | Not Active | – | – | – | 5.17 | 5.65 | – | – | – | – | – | – | – |
| COC(=O)[C@H]1[C@H]2C[C@@H]3c4[nH]c5cc(OC)ccc5c4CCN3C[C@H]2C[C@@H](OC(=O)c2cc(OC)c(OC)c(OC)c2)[C@@H]1OC [RESERPINE] | Not Active | Not Active | Not Active | Not Active | Not Active | Not Active | Not Active | – | – | – | – | – | – | – | – | – | – | – | – |
| O=c1[nH]c(=O)n(C2CCCO2)cc1F (stereo not drawn) [TEGAFUR] | Not Active | Not Active | Not Active | Not Active | Not Active | Not Active | Not Active | – | – | – | – | – | – | – | – | – | – | – | – |
| CC(C)NC[C@H](O)COc1cccc2ccccc12 [LEVOPROPRANOLOL] | Not Active | Not Active | Not Active | Not Active | Not Active | Not Active | Not Active | – | – | – | – | – | – | – | – | – | – | – | – |
| CN1[C@@H]2CC[C@H]1C[C@@H](OC(c1ccccc1)c1ccccc1)C2 [BENZTROPINE] | Not Active | Not Active | Not Active | – | Not Active | Not Active | Not Active | – | 7.28 | 7.59 | – | – | – | – | – | – | – | – | – |
| Cc1ccc(C(=O)c2ccc(CC(=O)O)n2C)cc1 [TOLMETIN] | Not Active | Not Active | Not Active | Not Active | Not Active | Not Active | Not Active | – | – | – | – | – | – | – | – | – | – | – | – |
| C[S+]([O-])c1ccc(-c2nc(-c3ccncc3)c(-c3ccc(F)cc3)[nH]2)cc1 (stereo not drawn) [SB-203580] | – | Not Active | Not Active | Not Active | – | Not Active | Not Active | – | – | – | – | – | – | – | – | – | – | – | – |
| CN1CCN(C2=Nc3cc(Cl)ccc3Nc3ccccc32)CC1 [CLOZAPINE] | Not Active | Not Active | Not Active | – | Not Active | Not Active | Not Active | – | – | – | – | – | – | – | – | – | – | – | – |
| C[C@]12C=CC(=O)C=C1CC[C@@H]1[C@@H]2C(=O)C[C@@]2(C)[C@H]1CC[C@]2(O)C(=O)CO [PREDNISONE] | Not Active | Not Active | Not Active | Not Active | Not Active | Not Active | Not Active | – | – | – | – | – | – | – | – | – | – | – | – |
| CC(C)NC[C@@H](O)COc1cccc2ccccc12 [DEXPROPRANOLOL] | Not Active | Not Active | Not Active | Not Active | Not Active | Not Active | Not Active | – | – | – | – | – | – | – | – | – | – | – | – |
| CN1CCN(CCCN2c3ccccc3Sc3ccc(C(F)(F)F)cc32)CC1 [TRIFLUOPERAZINE] | Not Active | Not Active | Not Active | Not Active | Not Active | Not Active | – | Not Active | – | – | – | – | – | – | – | – | – | – | – |
| O=C(O)COc1ccc(C(=O)c2cccs2)c(Cl)c1Cl | Not Active | Not Active | Not Active | Not Active | Not Active | Not Active | Not Active | – | – | – | – | – | – | – | – | – | – | – | – |
| C[N+](C)(C)CCOC(=O)CCC(=O)OCC[N+](C)(C)C.[Cl-].[Cl-] [SUCCINYLCHOLINE CHLORIDE] | Not Active | Not Active | Not Active | Not Active | Not Active | Not Active | Not Active | – | – | – | – | – | – | – | – | – | – | – | – |
| TRANSPLATIN | Not Active | Not Active | Not Active | Not Active | – | Not Active | Not Active | Not Active | – | – | – | – | Not Active | Not Active | Not Active | Not Active | 5.57 | Not Active | – |
| C[C@@](Cc1ccc(O)c(O)c1)(NN)C(=O)O.O [CARBIDOPA] | Not Active | Not Active | Not Active | Not Active | – | Not Active | Not Active | – | – | – | – | – | – | – | – | – | – | – | 5.17 |
